{"source": "patent US5229265A", "about": "“Process for analyzing clastogenic agents” (Litron Laboratories, priority 1990, dated 1993)", "key": {"[1]": {"system": "micronucleated cells in blood", "experiment": "Flow cytometric micronucleus assay, dual parameter data, cyclophosphamide, per 10^6 cells", "format": "in vivo, mouse", "conditions": "for Mns (T = 96 hr): Hoechst 33258; for Δ (T96 - T0): per mouse difference and mean of differences", "source_text": "The fixation procedure can affect the permeability of a cell, cell morphology and the amount of undesirable autofluorescence that is associated with a cell preparation. Fixing procedures can cause changes in cell structure (that are reflected in the light scatter patterns) as well as changes in the distribution of the dye molecules within the cells (resulting in altered fluorescence emission patterns). Practioners of the art are unaware that fixing the cells at ultralow temperatures circumvents these fixation problems and provides cells that are suitable for subsequent staining and FCM analysis. Initially, the cells are centrifuged in order to separate them from serum components which could aggregate when added to cold fixative. To fix cells, a fresh blood sample (25 μl) containing an anticogulant is suspended in a solution containing 1% BSA and 10% dimethylsulfoxide (DMSO) in PBS (2 ml). The cells are centrifuged at 500×g for five minutes at room temperature. The supernatant is discarded and the pellet is resuspended in the small amount of residual supernatant that remains. This cell suspension is cooled to 0° C., the cells are diluted further with cold (-70° C.) absolute methanol (2 ml) and it is incubated at -70° C. for five minutes. The cell suspension is then immediately diluted with 1% BSA in PBS (10 ml) and is centrifuged at 500×g for 5 minutes. The low temperature treatment yields fixed cells with good morphology as viewed with either inverted phase contrast microscopy or fluorescent microscopy. Autofluorescence of these cells is very low, in contrast to glutaraldehyde or paraformaldehyde fixation procedures that are widely used in the art. Other volumes of blood and/or BSA in PBS are also compatible with this cell fixing process. The volume of methanol should be in the range of 0.5 to 20 ml. The temperature of the methanol should be in the range -30° C. to -90° C., and the fixation time in the range of 1 minute to 60 minutes for good results. When cells are fixed in alcohol at higher temperatures (e.g. in the range of +37° C. to - 20° C.), they tend to aggregate and quickly settle to the bottom of the centrifuge tube. […] Other ultra cold solvents can be used in place of methanol, such as acetone, methanol/acetone solutions, etc.. Two fixed cell samples can be prepared for each mouse, an initial (time=0) sample and a final time=96 hr sample. Cells fixed in this way can be stored at 0° C. for weeks with no significant deterioration and are ready for staining and MN analysis.\nIt is known to practioners in the art that a variety of fluorescent dyes can be used to stain the DNA and RNA of cells. Even so, the specific stain, combinations or staining conditions that are optimum for the FCM based micronucleus assay are unresolved. […] These dye can be used individually or together to stain different cell populations. By choosing proper concentrations of these two dyes in conjunction with 363 nm excitation wavelength, it is possible to obtain a blue fluorescence signal from the Hoechst 33258 labeled micronucleii. A red fluorescence signal can be obtained from propidium iodide labeled PCEs. Whereas neither the dye combination, the dye concentration, the dye excitation wavelengths nor the appropriate buffer systems are known to practitioners in the art for an FCM based micronucleus assay, the following staining protocal is submitted as an embodiment of the present invention. A 10× stock solution of the dye should be prepared by dissolving 14.3 mg Hoechst 33258 in methanol (100 ml). A working solution is then prepared by adding 0.25 ml of the 10× stock solution to 9.75 ml of complete Sorensen's buffer. This working solution is then passed through an 0.2 micron acro-filter disk (Gelman Sciences) to remove any debris. The filtered working solution is further diluted by adding 25 μl to 967.5 μl of saline buffer (9 g NaCl and 0.445 g sodium bicarbonate per liter). […]"}, "[2]": {"system": "micronucleated cells in blood", "conditions": "literature statement; cited from earlier work"}, "[3]": {"conditions": "CP 100 μg/g body wt IP at 0 and 48 hours"}, "[4]": {"conditions": "CP 100 μg/g body wt IP at 0 and 48 hours, listed as CP"}}, "note": "“And” between values parts separate entries of the source, which are not always exact repeats. Identical values can stand only once.", "data": [{"smiles": "O=P1(N(CCCl)CCCl)NCCCO1", "note": "(stereo not shown) [cyclophosphamide]", "values": [{"measurement": "Mns (T = 96 hr)", "setting": "[1]; [3]", "value": 2954, "unit": "MNs per 10^6 cells"}, {"measurement": "Mns (T = 96 hr)", "setting": "[1]; [4]", "value": "2591 MNs per 10^6 cells and 2453 MNs per 10^6 cells and 2626 MNs per 10^6 cells and 2708 MNs per 10^6 cells and 2594 ± 106 MNs per 10^6 cells"}, {"measurement": "Δ (T96 - T0)", "setting": "[1]; [3]", "value": 1124, "unit": "MNs per 10^6 cells"}, {"measurement": "Δ (T96 - T0)", "setting": "[1]; [4]", "value": "1099 MNs per 10^6 cells and 1039 MNs per 10^6 cells and 1074 MNs per 10^6 cells and 1282 MNs per 10^6 cells and 1124 ± 108 MNs per 10^6 cells"}, {"measurement": "Difference Mn96 - Mn0 (difference of the means)", "setting": "[1]; CP 100 μg/g body wt IP at 0 and 48 hours, t=96 hr mean minus t=0 mean", "value": 1123, "unit": "MNs per 10^6 cells"}, {"measurement": "MN formation", "setting": "[1]; CP 100 μg/g body wt at 0 and 48 hours", "value": "large increase in MN formation"}, {"measurement": "Increase in MNs (MeanCP - MeanSaline), from mean Δ (T96 - T0)", "setting": "[1]; first method: difference of mean individual Δ values, CP minus saline", "value": 1047, "unit": "MNs per 10^6 cells"}, {"measurement": "Increase in MNs (MeanCP - MeanSaline), from Mn96 - Mn0 of means", "setting": "[1]; second method: difference of means, CP minus saline", "value": 1047, "unit": "MNs per 10^6 cells"}, {"measurement": "Increase in MNs, means of the t=96 hr samples (dosed minus controls)", "setting": "[1]; third method: t=0 values ignored, 1,000,000 cells", "value": 992, "unit": "MN-cells"}, {"measurement": "clastogenic activity (documented)", "setting": "[2]", "value": "clastogenic activity of cyclophosphamide has been documented"}]}]}
